One experiment deals with T1, FLT3-D835Y (Homo sapiens, UniProt P36888, D835Y).
T1 construct: purchased Invitrogen PV3967
T1 sequence (P36888 27-993 D835Y): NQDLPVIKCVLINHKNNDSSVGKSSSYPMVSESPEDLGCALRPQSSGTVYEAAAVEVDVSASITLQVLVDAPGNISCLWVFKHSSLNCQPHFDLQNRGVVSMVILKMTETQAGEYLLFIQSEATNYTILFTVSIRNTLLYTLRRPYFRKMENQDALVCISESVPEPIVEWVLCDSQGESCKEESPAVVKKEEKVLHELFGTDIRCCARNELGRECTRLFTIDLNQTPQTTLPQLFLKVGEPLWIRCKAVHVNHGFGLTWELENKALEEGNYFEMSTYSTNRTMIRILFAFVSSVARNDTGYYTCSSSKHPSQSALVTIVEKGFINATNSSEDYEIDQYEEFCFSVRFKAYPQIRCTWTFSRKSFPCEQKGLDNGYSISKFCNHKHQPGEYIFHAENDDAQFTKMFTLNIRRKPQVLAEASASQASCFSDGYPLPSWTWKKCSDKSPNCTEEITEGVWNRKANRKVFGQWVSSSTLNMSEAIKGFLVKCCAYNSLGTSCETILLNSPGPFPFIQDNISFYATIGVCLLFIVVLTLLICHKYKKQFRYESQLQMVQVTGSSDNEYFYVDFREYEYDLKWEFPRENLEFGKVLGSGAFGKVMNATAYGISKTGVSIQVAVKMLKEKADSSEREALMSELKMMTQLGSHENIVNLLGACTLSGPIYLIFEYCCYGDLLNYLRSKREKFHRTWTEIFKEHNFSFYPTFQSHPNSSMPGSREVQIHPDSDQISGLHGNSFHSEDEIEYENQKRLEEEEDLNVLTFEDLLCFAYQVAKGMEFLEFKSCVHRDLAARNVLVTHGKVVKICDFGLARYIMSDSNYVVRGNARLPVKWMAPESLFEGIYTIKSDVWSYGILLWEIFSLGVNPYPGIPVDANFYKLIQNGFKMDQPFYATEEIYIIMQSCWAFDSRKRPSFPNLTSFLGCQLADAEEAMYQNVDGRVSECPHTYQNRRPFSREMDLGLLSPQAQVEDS
The experiment is described as follows: FLT3-D835Y recombinant enzyme kinase assay (AlphaScreen). Type of experiment: biochemical. The following applies: 8 pt, GMean. The protocol: (§1) In order to determine the effect of compounds on FLT3 catalytic activity, kinase assays using recombinant enzymes and AlphaScreen® technology have been established. The catalytic activity of c-kit activity was also measured to determine selectivity of the compounds. When the kinases are catalytically active, they phosphorylate a biotinylated peptide substrate on tyrosine residues. Using AlphaScreen® technology, the ability of the compounds to affect the catalytic activity of the kinases can be measured quantitatively. The peptide substrate is immobilized by the AlphaScreen® Streptavidin Donor beads and, upon phosphorylation by a tyrosine kinase, can bind to AlphaScreen® Anti-Phosphotyrosine (PY20) Acceptor beads. Upon excitation of these beads with laser light at 680 nm, singlet oxygen is produced. This singlet oxygen is rapidly quenched, unless the AlphaScreen® Anti-Phosphotyrosine (PY20) Acceptor beads are in close proximity, in which case a proximity signal can be measured at 580 nm. In the presence of catalytic activity, there is a very strong proximity signal. Selective kinase inhibitors affect a decrease in this proximity signal through a decrease in tyrosine phosphorylation of the peptide substrate.
(§2) The assay was performed as summarized below.
(§3) Poly (Glu4-Tyr) Peptide, biotin conjugate [Biotin-GG(EEEEY)10EE] (SEQ ID NO: 4)
(§4) Final concentration=30 nM
(§5) Adenosine Triphosphate (ATP)
(§6) Final concentration for IC50 determination=10 μM (FLT3-D835Y or FLT3-ITD) or 100 μM (c-KIT)
(§7) AlphaScreen® Phosphotyrosine (PY20) Assay Kit
(§8) Final concentration=10 μg/mL
(§9) Dilute compounds in DMSO to 20× final concentration.
(§10) Add 1 μL of compound to each well of 384 well reaction plate (Perkin Elmer #6005359).
(§11) Mix enzyme and Poly (Glu4-Tyr) Peptide substrate at 1.33× final concentration in assay buffer.
(§12) Mix ATP at 5× final concentration in assay buffer.
(§13) Add 15 μL enzyme/substrate mixture to the reaction plate.
(§14) Add 4 μL of ATP to the reaction plate.
(§15) Mix Streptavidin Donor beads at 6× final concentration in Stop/Detection buffer.
(§16) Add 5 μL Streptavidin Donor beads to the reaction plate. Centrifuge 1 minute, shake to mix, and incubate at room temperature for 20 minutes.
(§17) Mix Anti-Phosphotyrosine (PY20) Acceptor beads at 6× final concentration in Stop/Detection buffer.
(§18) Add 5 μL Anti-Phosphotyrosine (PY20) beads to the reaction plate.
(§19) Centrifuge 1 minute, shake to mix, and incubate at room temperature for 60 minutes.
(§20) Read plate on Wallac EnVision™ 2103 Multilabel Reader.
On the technique in general: Alpha assays give light when donor and acceptor beads are brought close together.

A further experiment addresses T2, c-KIT (Homo sapiens, UniProt P10721).
T2 construct: purchased Millipore 14-559K
The experiment is described as follows: c-KIT recombinant enzyme kinase assay (AlphaScreen). The class given is biochemical. The following applies: 100 ATP, 8 pt. Here is the method:
as §1, §2, §3, §4, §5, §6, §7, §8, §9, §10, §11, §12, §13, §14, §15, §16, §17, §18, §19, §20

T2 sequence (P10721 26-976): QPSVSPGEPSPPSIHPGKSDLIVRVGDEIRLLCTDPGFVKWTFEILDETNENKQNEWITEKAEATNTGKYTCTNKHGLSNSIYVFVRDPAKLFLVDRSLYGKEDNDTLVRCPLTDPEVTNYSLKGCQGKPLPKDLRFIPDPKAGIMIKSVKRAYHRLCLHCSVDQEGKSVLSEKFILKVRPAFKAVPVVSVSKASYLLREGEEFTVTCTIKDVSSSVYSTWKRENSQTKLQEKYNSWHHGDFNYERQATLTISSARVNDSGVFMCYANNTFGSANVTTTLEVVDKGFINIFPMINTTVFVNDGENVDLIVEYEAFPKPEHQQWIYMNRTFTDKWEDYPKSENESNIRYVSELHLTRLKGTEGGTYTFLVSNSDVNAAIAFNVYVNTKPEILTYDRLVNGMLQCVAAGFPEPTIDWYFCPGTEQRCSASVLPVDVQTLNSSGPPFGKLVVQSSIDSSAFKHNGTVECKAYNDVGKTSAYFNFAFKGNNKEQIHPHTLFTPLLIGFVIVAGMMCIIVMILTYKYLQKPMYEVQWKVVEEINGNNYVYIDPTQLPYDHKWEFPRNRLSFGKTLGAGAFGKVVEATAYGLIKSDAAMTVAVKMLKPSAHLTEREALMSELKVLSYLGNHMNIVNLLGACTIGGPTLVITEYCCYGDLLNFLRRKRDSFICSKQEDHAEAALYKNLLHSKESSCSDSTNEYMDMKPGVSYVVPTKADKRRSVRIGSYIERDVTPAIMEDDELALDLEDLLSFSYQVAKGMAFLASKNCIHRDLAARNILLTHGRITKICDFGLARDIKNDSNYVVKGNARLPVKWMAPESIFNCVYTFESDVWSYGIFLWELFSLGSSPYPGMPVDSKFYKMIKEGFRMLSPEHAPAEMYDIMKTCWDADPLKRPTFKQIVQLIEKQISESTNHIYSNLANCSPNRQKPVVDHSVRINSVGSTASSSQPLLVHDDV

Usually IC50 stands for the concentration that gives 50% inhibition. As to `Cn1cnc(Nc2ncc(-c3ccc(CC(=O)Nc4cnc(Cl)c(C(F)(F)F)c4)c(F)c3)cn2)c1` [Compound P-0100, N-[6-chloro-5-(trifluoromethyl)-3-pyridyl]-2-[2-fluoro-4-[2-[(1-methylimidazol-4-yl)amino]pyrimidin-5-yl]phenyl]acetamide], the IC50 on FLT3-D835Y and at c-KIT was 0.0001 to 10 µM each time.
For the molecule `COc1ncc(NC(=O)Cc2ccc(-c3cnc(Nc4cn(C)cn4)nc3)cc2F)cc1C(F)(F)F` [Compound P-0101, 2-[2-fluoro-4-[2-[(1-methylimidazol-4-yl)amino]pyrimidin-5-yl]phenyl]-N-[6-methoxy-5-(trifluoromethyl)-3-pyridyl]acetamide], the IC50 on FLT3-D835Y and at c-KIT was 0.0001 to 10 µM each time.
Take `Cn1cnc(Nc2ncc(-c3ccc(CC(=O)Nc4cc(C(C)(F)F)ccn4)c(F)c3)cn2)c1` [Compound P-0102, N-[4-(1,1-difluoroethyl)-2-pyridyl]-2-[2-fluoro-4-[2-[(1-methylimidazol-4-yl)amino]pyrimidin-5-yl]phenyl]acetamide]: the IC50 on FLT3-D835Y and at c-KIT was 0.0001 to 10 µM in each case.
Regarding `Cn1cnc(Nc2ncc(-c3ccc(CC(=O)Nc4cncc(C(C)(F)F)c4)c(F)c3)cn2)c1` [Compound P-0103, N-[5-(1,1-difluoroethyl)-3-pyridyl]-2-[2-fluoro-4-[2-[(1-methylimidazol-4-yl)amino]pyrimidin-5-yl]phenyl]acetamide], the IC50 at FLT3-D835Y and on c-KIT was 0.0001 to 10 µM each time.
Regarding `Cn1cc(Nc2ncc(-c3ccc(CC(=O)Nc4cnc(F)c(C(C)(F)F)c4)cc3)cn2)cn1` [Compound P-0104, N-[5-(1,1-difluoroethyl)-6-fluoro-3-pyridyl]-2-[4-[2-[(1-methylpyrazol-4-yl)amino]pyrimidin-5-yl]phenyl]acetamide], the IC50 at FLT3-D835Y and at c-KIT was 0.0001 to 10 µM throughout.
Consider `Cn1cc(Nc2ncc(-c3ccc(CC(=O)Nc4cnc(F)c(C(C)(F)F)c4)c(F)c3)cn2)cn1` [Compound P-0105, N-[5-(1,1-difluoroethyl)-6-fluoro-3-pyridyl]-2-[2-fluoro-4-[2-[(1-methylpyrazol-4-yl)amino]pyrimidin-5-yl]phenyl]acetamide], for which the IC50 on FLT3-D835Y and on c-KIT was 0.0001 to 10 µM throughout.
As to `Cn1cc(Nc2ncc(-c3ccc(CC(=O)Nc4ccc(C(F)(F)F)cn4)c(F)c3)cn2)cn1` [Compound P-0106, 2-[2-fluoro-4-[2-[(1-methylpyrazol-4-yl)amino]pyrimidin-5-yl]phenyl]-N-[5-(trifluoromethyl)-2-pyridyl]acetamide], the IC50 at FLT3-D835Y and on c-KIT was 0.0001 to 10 µM each time.
Consider `Cn1cc(Nc2ncc(-c3ccc(CC(=O)Nc4cc(Cl)c(C5CC5)cn4)c(F)c3)cn2)cn1` [Compound P-0107, N-(4-chloro-5-cyclopropyl-2-pyridyl)-2-[2-fluoro-4-[2-[(1-methylpyrazol-4-yl)amino]pyrimidin-5-yl]phenyl]acetamide], for which the IC50 at FLT3-D835Y and at c-KIT was 0.0001 to 10 µM throughout.
Regarding `Cn1cc(Nc2ncc(-c3ccc(CC(=O)Nc4ccc(C(C)(C)C#N)nc4)c(F)c3)cn2)cn1` [Compound P-0108, N-[6-(1-cyano-1-methyl-ethyl)-3-pyridyl]-2-[2-fluoro-4-[2-[(1-methylpyrazol-4-yl)amino]pyrimidin-5-yl]phenyl]acetamide], the IC50 on FLT3-D835Y and on c-KIT was 0.0001 to 10 µM in each case.
With `Cn1cc(Nc2ncc(-c3ccc(CC(=O)Nc4ccc(C(F)(F)F)cn4)cc3)cn2)cn1` [Compound P-0109, 2-[4-[2-[(1-methylpyrazol-4-yl)amino]pyrimidin-5-yl]phenyl]-N-[5-(trifluoromethyl)-2-pyridyl]acetamide], the IC50 at FLT3-D835Y and on c-KIT was 0.0001 to 10 µM in each case.
On to `Cn1cc(Nc2ncc(-c3ccc(CC(=O)Nc4ccc(C(F)(F)F)nc4)c(F)c3)cn2)cn1` [Compound P-0110, 2-[2-fluoro-4-[2-[(1-methylpyrazol-4-yl)amino]pyrimidin-5-yl]phenyl]-N-[6-(trifluoromethyl)-3-pyridyl]acetamide], for which the IC50 at FLT3-D835Y and at c-KIT was 0.0001 to 10 µM throughout.
Turning to `CCc1cncc(NC(=O)Cc2ccc(-c3cnc(Nc4cnn(C)c4)nc3)cc2F)c1` [Compound P-0111, N-(5-ethyl-3-pyridyl)-2-[2-fluoro-4-[2-[(1-methylpyrazol-4-yl)amino]pyrimidin-5-yl]phenyl]acetamide], the IC50 on FLT3-D835Y and at c-KIT was 0.0001 to 10 µM each time.
On to `Cn1cc(Nc2ncc(-c3ccc(CC(=O)Nc4cccnc4)cc3)cn2)cn1` [Compound P-0131, 2-[4-[2-[(1-methylpyrazol-4-yl)amino]pyrimidin-5-yl]phenyl]-N-(3-pyridyl)acetamide], for which the IC50 on FLT3-D835Y and on c-KIT was 0.0001 to 10 µM throughout.
`COc1cncc(NC(=O)Cc2ccc(-c3cnc(Nc4cnn(C)c4)nc3)cc2)c1` [Compound P-0133, N-(5-methoxy-3-pyridyl)-2-[4-[2-[(1-methylpyrazol-4-yl)amino]pyrimidin-5-yl]phenyl]acetamide]: the IC50 on FLT3-D835Y and on c-KIT was 0.0001 to 10 µM each time.
As to `Cn1cc(Nc2ncc(-c3ccc(CC(=O)Nc4ccnc(C(F)(F)F)c4)cc3)cn2)cn1` [Compound P-0134, 2-[4-[2-[(1-methylpyrazol-4-yl)amino]pyrimidin-5-yl]phenyl]-N-[2-(trifluoromethyl)-4-pyridyl]acetamide], the IC50 on FLT3-D835Y and at c-KIT was 0.0001 to 10 µM each time.
As for `Cn1cc(Nc2ncc(-c3ccc(CC(=O)Nc4cc(C(F)(F)F)ncn4)cc3)cn2)cn1` [Compound P-0135, 2-[4-[2-[(1-methylpyrazol-4-yl)amino]pyrimidin-5-yl]phenyl]-N-[6-(trifluoromethyl)pyrimidin-4-yl]acetamide], the IC50 on FLT3-D835Y and on c-KIT was 0.0001 to 10 µM throughout.
Take `Cn1cc(Nc2ncc(-c3ccc(CC(=O)Nc4cncc(C(F)(F)F)c4)cc3)cn2)cn1` [Compound P-0136, 2-[4-[2-[(1-methylpyrazol-4-yl)amino]pyrimidin-5-yl]phenyl]-N-[5-(trifluoromethyl)-3-pyridyl]acetamide]: the half-maximal inhibitory concentration (IC50) at FLT3-D835Y and at c-KIT was 0.0001 to 10 µM throughout.
Consider `Cn1cc(Nc2ncc(-c3ccc(CC(=O)Nc4ccnc(C(F)(F)F)n4)cc3)cn2)cn1` [Compound P-0137, 2-[4-[2-[(1-methylpyrazol-4-yl)amino]pyrimidin-5-yl]phenyl]-N-[2-(trifluoromethyl)pyrimidin-4-yl]acetamide], for which the IC50 at FLT3-D835Y and on c-KIT was 0.0001 to 10 µM each time.
Turning to `COc1ncc(NC(=O)Cc2ccc(-c3cnc(Nc4cnn(C)c4)nc3)cc2)cc1C(F)(F)F` [Compound P-0138, N-[6-methoxy-5-(trifluoromethyl)-3-pyridyl]-2-[4-[2-[(1-methylpyrazol-4-yl)amino]pyrimidin-5-yl]phenyl]acetamide], the IC50 on FLT3-D835Y and at c-KIT was 0.0001 to 10 µM each time.

For the origin of these results see patent US10160747B2, “Compounds and methods for kinase modulation, and indications therefor” (Plexxikon Inc., priority 2016, dated 2018).
